According to ChEMBL document CHEMBL5154793, “Discovery of Thieno[2,3-d]pyrimidine-based KRAS G12D inhibitors as potential anticancer agents via combinatorial virtual screening” (Eur J Med Chem, 2022):

Legend:
Type in all cases: functional, cell-based
PANC-1 = experiment: Antiproliferative activity against human PANC1 cells harboring KRAS G12D mutant assessed as inhibition of cell viability after 24 hrs by MTT assay; details: PANC-1, 24 h
SW1990 = experiment: Antiproliferative activity against human SW1990 cells harboring KRAS G12D mutant assessed as inhibition of cell viability after 24 hrs by MTT assay; details: SW1990, 24 h
HCT-116 = experiment: Antiproliferative activity against human HCT-116 cells harboring KRAS G13D mutant assessed as inhibition of cell viability after 24 hrs by MTT assay; details: HCT-116, 24 h
NCI-H358 = experiment: Antiproliferative activity against human NCI-H358 cells harboring KRAS G12C mutant assessed as inhibition of cell viability after 24 hrs by MTT assay; details: NCI-H358, 24 h
HeLa = experiment: Antiproliferative activity against human HeLa cells harboring wild type KRAS assessed as inhibition of cell viability after 24 hrs by MTT assay
CT26 = experiment: Antiproliferative activity against mouse CT26 cells harboring KRAS G12D mutant assessed as inhibition of cell viability after 24 hrs by MTT assay; details: CT26, 24 h

Compound | IC50 (PANC-1) [µM] | IC50 (SW1990) [µM] | IC50 (HCT-116) [µM] | IC50 (NCI-H358) [µM] | IC50 (HeLa) [µM] | IC50 (CT26) [µM]
Fc1ccc(-c2cc3c(N4CC5CCC(C4)N5)ncnc3s2)c(F)c1 | 13 | 13.4 |  |  |  | 15.6
C=CC(=O)N1CCN(c2ncnc3c(F)c(-c4c(O)cccc4F)c(Cl)cc23)CC1 | > 20 | > 20 | > 20 | 0.2 | > 20 | > 20
COc1ccc(F)cc1-c1cc2c(N3CC4CCC(C3)N4)ncnc2s1 | > 20 | 16.8 |  |  |  | 22.6
COc1cc(-c2cc3c(N4CC5CCC(C4)N5)ncnc3s2)cc(OC)c1OC | > 20 | > 20 |  |  |  | 25
Fc1cc(-c2cc3c(N4CC5CCC(C4)N5)ncnc3s2)ccc1Cl | 24.7 | 15.9 |  |  |  | 13
O=[N+]([O-])c1ccc(-c2cc3c(N4CC5CCC(C4)N5)ncnc3s2)cc1 | 16.8 | 8.7 |  |  |  | 4.4
c1ccc(-c2cc3c(N4CC5CC(C4)N5)ncnc3s2)cc1 | 30.5 | 40.1 |  |  |  | 40.5
Cc1ccc(-c2cc3c(N4CC5CCC(C4)N5)ncnc3s2)c(Cl)c1 | 11.4 | 15.8 |  |  |  | 13.8
Fc1cc(-c2cc3c(N4CC5CCC(C4)N5)ncnc3s2)cc(C(F)(F)F)c1 | 12.9 | 7.2 |  |  |  | 14.7
FC(F)(F)c1ccc(-c2cc3c(N4CC5CCC(C4)N5)ncnc3s2)cc1 | 10.3 | 6.2 |  |  |  | 6.9
COc1cccc(F)c1-c1cc2c(N3CC4CCC(C3)N4)ncnc2s1 | 15.2 | 18.8 |  |  |  | 17

The remaining compounds from weak to strong by IC50 (PANC-1), led by results:

IC50 (PANC-1) [µM] | IC50 (SW1990) [µM] | IC50 (HCT-116) [µM] | IC50 (NCI-H358) [µM] | IC50 (HeLa) [µM] | IC50 (CT26) [µM] | Compound
10.2 | 13.3 |  |  |  | 14.1 | COc1ccc(-c2cc3c(N4CC5CCC(C4)N5)ncnc3s2)cc1F
10.1 | 5.9 |  |  |  | 13.4 | Cc1ccc(-c2cc3c(N4CC5CCC(C4)N5)ncnc3s2)c(C)c1
9.4 | 4.2 |  |  |  | 9.7 | FC(F)(F)c1ccc(Cl)c(-c2cc3c(N4CC5CCC(C4)N5)ncnc3s2)c1
7.9 | 10.2 |  |  |  | 9.8 | COc1ccc(F)c(-c2cc3c(N4CC5CCC(C4)N5)ncnc3s2)c1
7.7 | 5.8 | 8 | 4.5 | 10.5 | 7.2 | COc1cc(-c2cc3c(N4CC5CCC(C4)N5)ncnc3s2)cc(C(F)(F)F)c1
7.5 | 12.1 | 9.9 | 9.4 | 12.5 | 7.1 | Clc1ccc(-c2cc3c(N4CC5CCC(C4)N5)ncnc3s2)cc1Cl
6.8 | 9.2 | 4.9 | 9.4 | 7.7 | 7.2 | COc1cc(Cl)ccc1-c1cc2c(N3CC4CCC(C3)N4)ncnc2s1
6.7 | 8 |  |  |  | 8.4 | COc1ccc(Cl)c(-c2cc3c(N4CC5CCC(C4)N5)ncnc3s2)c1
6.1 | 17.8 | 27.3 | 21.5 | > 40 | 11.8 | Fc1ccc(F)c(-c2cc3c(N4CC5CCC(C4)N5)ncnc3s2)c1
5.3 | 7.7 | 8.2 | 9.1 | 8.8 | 6.5 | FC(F)(F)c1cc(Cl)cc(-c2cc3c(N4CC5CCC(C4)N5)ncnc3s2)c1
4.3 | 7.7 | 15.9 | 10.1 | 11.3 | 6.5 | Clc1ccc(Cl)c(-c2cc3c(N4CC5CCC(C4)N5)ncnc3s2)c1
4 | 4.9 | 9.7 | 9.4 | 8.5 | 5.7 | COc1ccc(Cl)cc1-c1cc2c(N3CC4CCC(C3)N4)ncnc2s1
2.8 | 7.7 | 7.9 |  | 11.5 | 12.4 | c1ccc(-c2cccc3ccccc23)c(-c2cc3c(N4CC5CCC(C4)N5)ncnc3s2)c1
